Measured values taken from ChEMBL document CHEMBL1201862, “PubChem BioAssay data set” (2004).
Calls of active or inactive are those of the source.

Legend:
[1] = NIH-3T3 fibroblast cytotoxicity, dose response, cytotoxicity control, cell-based, fluorescence, Alamar Blue, secondary assay (AID 2327); type: functional;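 further: NIH-3T3 mouse fibroblasts cultured with fluconazole at 8 µg/mL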
[2] = system: Vero; assay: Vero cell cytotoxicity, cytotoxicity control for flavivirus capping enzyme inhibitors (AID 588742); type: functional; details: Chlorocebus sabaeus
[3] = C. albicans growth with fluconazole, confirmation, fluorescence, retest (AID 2467); type: functional, cell-based
[4] = Luminescence Cell-Based Dose Response HTS to Identify Inhibitors of 5'UTR Stem-Loop Driven Prion Protein mRNA Translation in H4 Neuroglioblastoma Cells. [Related pubchem assays: 1827 (Project Summary), 1813 (Primary HTS)]; type: functional
[5] = inhibitors of firefly luciferase expression or activity, dose response, H4 neuroglioma cells, luminescence (AID 1990); type: functional, cell-based
[6] = target: T1, Serine/threonine-protein phosphatase (Candida dubliniensis (strain CD36 / CBS 7987 / NCPF 3949 / NRRLY-17841) (Yeast), UniProt B9W6M3); assay: calcineurin pathway inhibitors in yeast reporter, dose response, S. cerevisiae, CDRE-lacZ, luminescence, secondary (AID 2388); type: functional, cell-based;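 further: yeast reporter cells carrying a calcineurin-responsive lacZ construct stimulated with calcium chloride; luminescent beta-galactosidase reporter signal in whole cells rather than isolated phosphatase activity; potency for inhibition where a drop in reporter signal means calcineurin blockade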
T1 sequence (B9W6M3 whole entry): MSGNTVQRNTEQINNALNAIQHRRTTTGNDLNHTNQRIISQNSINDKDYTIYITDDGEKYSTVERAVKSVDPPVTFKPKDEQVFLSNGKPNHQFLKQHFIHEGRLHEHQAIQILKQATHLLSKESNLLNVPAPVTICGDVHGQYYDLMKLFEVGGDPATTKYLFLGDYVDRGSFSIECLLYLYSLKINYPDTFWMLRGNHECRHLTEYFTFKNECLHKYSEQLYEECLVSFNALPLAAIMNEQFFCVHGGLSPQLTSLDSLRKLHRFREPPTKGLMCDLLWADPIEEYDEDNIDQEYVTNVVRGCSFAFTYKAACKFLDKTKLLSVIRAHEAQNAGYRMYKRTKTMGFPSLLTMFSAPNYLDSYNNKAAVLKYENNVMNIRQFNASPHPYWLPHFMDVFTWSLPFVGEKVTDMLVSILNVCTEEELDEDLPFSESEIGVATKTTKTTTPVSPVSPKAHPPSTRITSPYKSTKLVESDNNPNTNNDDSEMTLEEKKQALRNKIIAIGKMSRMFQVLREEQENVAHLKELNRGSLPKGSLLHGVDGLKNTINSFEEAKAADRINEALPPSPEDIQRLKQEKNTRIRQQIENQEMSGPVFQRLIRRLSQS

[7] = system: Streptococcus; assay: Group A Streptococcus viability loss, dose response, counter-screen for streptokinase expression inhibitor project, luminescence, BacTiterGlo (AID 1915); type: functional, organism-based;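 further: potency for reduction of bacterial viability or growth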
[8] = system: Streptococcus sp. 'group A'; assay: growth inhibition of control SK(-) GAS strain, dose response, counter-screen for streptokinase expression inhibitor project, luminescence, kanamycin, BacTiterGlo, confirmation (AID 1900); type: functional, organism-based
[9] = system: Vero; assay: cells; type: functional; details: Chlorocebus sabaeus
[10] = target: ATP-dependent molecular chaperone HSP82 (Candida albicans (strain WO-1) (Yeast), UniProt C4YTQ8); assay: loss of DOC-induced GRE-beta-galactosidase reporter signal, dose response, Hsp90 inhibitor project, S. cerevisiae, luminescence (AID 2400); type: functional, cell-based;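 further: beta-galactosidase luminescence from glucocorticoid response element reporter as proxy for Hsp90 function; inhibitor potency where signal loss means Hsp90 inhibition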
Sequence of ATP-dependent molecular chaperone HSP82 (C4YTQ8 whole entry): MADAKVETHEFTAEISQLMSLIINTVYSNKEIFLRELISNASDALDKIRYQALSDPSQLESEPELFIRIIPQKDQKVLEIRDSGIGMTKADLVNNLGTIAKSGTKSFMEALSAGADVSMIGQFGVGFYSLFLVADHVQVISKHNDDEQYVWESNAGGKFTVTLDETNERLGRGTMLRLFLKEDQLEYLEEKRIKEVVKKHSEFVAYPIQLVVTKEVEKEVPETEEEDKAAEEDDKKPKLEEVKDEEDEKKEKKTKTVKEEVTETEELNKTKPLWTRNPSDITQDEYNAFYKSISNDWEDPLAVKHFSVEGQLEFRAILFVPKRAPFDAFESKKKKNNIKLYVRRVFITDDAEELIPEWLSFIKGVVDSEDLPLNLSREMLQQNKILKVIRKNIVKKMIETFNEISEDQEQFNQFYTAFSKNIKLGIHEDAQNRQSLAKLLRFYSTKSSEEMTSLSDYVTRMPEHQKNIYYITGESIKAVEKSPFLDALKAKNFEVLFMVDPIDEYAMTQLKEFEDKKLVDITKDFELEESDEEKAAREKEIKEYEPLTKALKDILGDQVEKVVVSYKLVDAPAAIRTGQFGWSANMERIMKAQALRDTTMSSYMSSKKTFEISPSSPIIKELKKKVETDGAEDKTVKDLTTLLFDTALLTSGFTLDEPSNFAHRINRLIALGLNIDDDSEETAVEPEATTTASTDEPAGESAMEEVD

[11] = inhibitors of SNCA 5'UTR-driven reporter translation, confirmation, H4 neuroglioma cells, luminescence (AID 1988); type: functional, cell-based
[12] = target: T2, Type-1 angiotensin II receptor (Homo sapiens, UniProt P30556); assay: AT1 receptor antagonists, dose response, selectivity assay for APJ receptor antagonist project, cell-based, uHTS hits (AID 463214); type: functional;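 further: antagonist potency against angiotensin II stimulated AT1 response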
T2 sequence (P30556 whole entry): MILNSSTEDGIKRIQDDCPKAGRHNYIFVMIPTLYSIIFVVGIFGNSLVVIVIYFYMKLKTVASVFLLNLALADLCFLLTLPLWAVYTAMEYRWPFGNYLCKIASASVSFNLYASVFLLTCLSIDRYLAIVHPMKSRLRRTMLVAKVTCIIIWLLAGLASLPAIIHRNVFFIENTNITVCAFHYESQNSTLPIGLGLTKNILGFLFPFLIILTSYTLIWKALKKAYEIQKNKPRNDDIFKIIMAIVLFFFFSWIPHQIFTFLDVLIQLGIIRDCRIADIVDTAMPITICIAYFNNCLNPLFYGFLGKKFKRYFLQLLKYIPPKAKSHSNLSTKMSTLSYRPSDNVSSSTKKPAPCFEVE

[13] = target: Beta-galactosidase (Escherichia coli, UniProt Q8VNN2); assay: PubChem AID 485352; type: functional
Sequence of Beta-galactosidase (Q8VNN2 whole entry, the tested form may be a part): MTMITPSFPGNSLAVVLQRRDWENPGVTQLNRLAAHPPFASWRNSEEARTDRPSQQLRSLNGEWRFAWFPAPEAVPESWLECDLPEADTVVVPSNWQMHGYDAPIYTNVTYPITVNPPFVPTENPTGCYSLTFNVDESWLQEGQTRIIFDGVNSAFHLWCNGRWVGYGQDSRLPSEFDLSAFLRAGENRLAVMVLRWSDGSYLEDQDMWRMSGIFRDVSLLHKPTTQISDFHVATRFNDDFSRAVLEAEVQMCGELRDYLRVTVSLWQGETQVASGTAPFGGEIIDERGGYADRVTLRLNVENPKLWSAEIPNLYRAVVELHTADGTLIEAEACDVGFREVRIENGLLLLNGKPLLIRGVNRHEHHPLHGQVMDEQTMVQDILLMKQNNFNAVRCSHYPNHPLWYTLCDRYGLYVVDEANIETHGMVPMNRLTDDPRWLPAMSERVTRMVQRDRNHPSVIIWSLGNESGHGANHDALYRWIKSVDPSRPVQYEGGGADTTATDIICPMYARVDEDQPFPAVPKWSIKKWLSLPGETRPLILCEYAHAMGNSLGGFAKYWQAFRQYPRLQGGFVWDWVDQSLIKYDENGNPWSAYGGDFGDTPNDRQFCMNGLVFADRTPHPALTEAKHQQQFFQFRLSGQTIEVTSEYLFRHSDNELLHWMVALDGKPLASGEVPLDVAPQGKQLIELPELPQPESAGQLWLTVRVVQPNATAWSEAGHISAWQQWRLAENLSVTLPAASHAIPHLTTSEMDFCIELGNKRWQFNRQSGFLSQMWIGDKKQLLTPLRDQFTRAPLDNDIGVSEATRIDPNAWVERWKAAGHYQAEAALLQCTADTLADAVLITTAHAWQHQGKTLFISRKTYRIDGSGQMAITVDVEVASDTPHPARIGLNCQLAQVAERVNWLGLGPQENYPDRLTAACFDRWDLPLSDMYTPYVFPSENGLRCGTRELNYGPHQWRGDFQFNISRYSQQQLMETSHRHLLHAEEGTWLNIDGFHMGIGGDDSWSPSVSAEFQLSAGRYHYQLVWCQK

[14] = Fluorescence-based cell-based high throughput dose response assay for inhibitors of the interaction of nucleotide-binding oligomerization domain containing 2 (NOD2) and the receptor-interacting serine-threonine kinase 2 (RIPK2).; type: functional; details: Homo sapiens
[15] = cytotoxicity in KRAS-transformed pancreatic duct cells, primary screen, cell-based, fluorescence, HTS (AID 431); type: functional; details: Homo sapiens;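 further: cell line used: HPDE-C7K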
[16] = cytotoxicity in HPDE-C7 cells, cell-based, fluorescence, HTS (AID 430); type: functional; details: Homo sapiens
[17] = HeLa cell cytotoxicity, dose response, cytotoxicity control for MgcRacGAP inhibitor project (AID 624300); type: functional
[18] = system: INS1; assay: beta cell apoptosis inhibitors, cytokine rescue, dose response, luminescence, retest (AID 449756); type: functional, cell-based; details: Rattus norvegicus;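 further: cell death triggered by IL-1 beta plus TNF-alpha plus IFN-gamma mixture; protective hits raise ATP signal compared with cytokine alone wells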
[19] = target: Phospholipase D2 (Homo sapiens, UniProt O14939); assay: PLD2 inhibitor potency in cells, dose response (AID 602147); type: functional;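 further: cellular assay in HEK293 cells overexpressing GFP-tagged PLD2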
Sequence of Phospholipase D2 (O14939 whole entry): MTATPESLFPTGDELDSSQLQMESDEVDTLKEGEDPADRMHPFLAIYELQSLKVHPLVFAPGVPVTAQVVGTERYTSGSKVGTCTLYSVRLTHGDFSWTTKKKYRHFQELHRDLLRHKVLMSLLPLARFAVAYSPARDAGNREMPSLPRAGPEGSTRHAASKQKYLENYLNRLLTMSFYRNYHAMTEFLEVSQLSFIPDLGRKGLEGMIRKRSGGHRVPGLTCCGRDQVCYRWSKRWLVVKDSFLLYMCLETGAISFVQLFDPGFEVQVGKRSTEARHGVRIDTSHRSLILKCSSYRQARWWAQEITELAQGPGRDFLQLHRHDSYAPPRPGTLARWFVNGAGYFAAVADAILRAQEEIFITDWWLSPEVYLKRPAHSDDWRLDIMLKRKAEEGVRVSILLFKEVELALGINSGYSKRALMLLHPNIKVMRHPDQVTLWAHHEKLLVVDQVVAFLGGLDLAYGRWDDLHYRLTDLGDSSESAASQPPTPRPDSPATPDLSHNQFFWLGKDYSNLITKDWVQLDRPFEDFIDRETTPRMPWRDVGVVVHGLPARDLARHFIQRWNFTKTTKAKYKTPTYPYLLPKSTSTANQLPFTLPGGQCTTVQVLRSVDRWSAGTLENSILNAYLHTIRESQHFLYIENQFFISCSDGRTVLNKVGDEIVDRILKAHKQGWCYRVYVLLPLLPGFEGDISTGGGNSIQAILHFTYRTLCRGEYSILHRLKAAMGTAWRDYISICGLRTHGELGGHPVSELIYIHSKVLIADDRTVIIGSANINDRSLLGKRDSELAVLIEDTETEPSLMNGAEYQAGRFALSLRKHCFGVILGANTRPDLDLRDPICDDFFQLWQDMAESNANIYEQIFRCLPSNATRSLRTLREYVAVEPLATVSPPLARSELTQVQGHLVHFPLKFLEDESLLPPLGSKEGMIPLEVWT

[20] = target: Phospholipase D1 (Homo sapiens, UniProt Q13393); assay: PLD1 inhibitor potency in cells, dose response (AID 602151); type: functional;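 further: cellular PLD1 assay in Calu-1 cells stimulated with PMA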
Sequence of Phospholipase D1 (Q13393 whole entry): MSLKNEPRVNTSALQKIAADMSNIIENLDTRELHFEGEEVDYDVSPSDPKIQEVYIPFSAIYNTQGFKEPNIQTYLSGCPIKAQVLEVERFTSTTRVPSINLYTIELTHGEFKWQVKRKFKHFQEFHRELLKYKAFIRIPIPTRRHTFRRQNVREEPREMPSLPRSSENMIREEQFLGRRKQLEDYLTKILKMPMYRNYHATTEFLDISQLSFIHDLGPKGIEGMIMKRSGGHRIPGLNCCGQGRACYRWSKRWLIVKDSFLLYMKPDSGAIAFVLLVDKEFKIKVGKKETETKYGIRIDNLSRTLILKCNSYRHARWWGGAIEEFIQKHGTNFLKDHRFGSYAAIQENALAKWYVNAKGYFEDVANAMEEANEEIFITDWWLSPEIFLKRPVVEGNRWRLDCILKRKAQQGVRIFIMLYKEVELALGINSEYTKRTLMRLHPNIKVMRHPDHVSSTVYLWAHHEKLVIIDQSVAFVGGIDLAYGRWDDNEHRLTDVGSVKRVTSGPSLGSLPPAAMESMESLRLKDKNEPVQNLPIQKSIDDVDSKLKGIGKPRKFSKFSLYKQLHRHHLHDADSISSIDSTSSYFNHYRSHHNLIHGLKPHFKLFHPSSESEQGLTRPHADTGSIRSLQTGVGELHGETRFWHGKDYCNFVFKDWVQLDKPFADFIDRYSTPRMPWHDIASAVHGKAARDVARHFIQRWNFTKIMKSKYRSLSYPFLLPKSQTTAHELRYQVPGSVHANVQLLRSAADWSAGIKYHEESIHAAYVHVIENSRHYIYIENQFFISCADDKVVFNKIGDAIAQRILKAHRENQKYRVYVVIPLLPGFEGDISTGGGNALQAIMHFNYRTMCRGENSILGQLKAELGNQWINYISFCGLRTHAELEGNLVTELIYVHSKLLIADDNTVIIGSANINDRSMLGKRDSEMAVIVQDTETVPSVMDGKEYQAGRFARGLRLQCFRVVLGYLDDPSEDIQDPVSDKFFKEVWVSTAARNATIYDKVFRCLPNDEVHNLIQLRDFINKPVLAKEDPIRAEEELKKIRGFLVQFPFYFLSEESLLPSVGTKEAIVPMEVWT

[21] = inhibitors of intracellular T. cruzi replication, confirmation, NIH3T3 host cells, beta-gal luminescence (AID 2044); type: functional, cell-based;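 further: intracellular parasites grown in NIH/3T3 mouse fibroblasts as host cells; luminescent beta-galactosidase reporter signal from transgenic T. cruzi replicating inside host cells; inhibitors lower the luminescence signal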
[22] = target: Latent membrane protein 1 (Human herpesvirus 4 (strain B95-8), UniProt P03230); assay: TES1-eGFP NF-kB reporter inhibition versus Tet-On dsRED, dose response, selectivity assay for LMP1 NF-kB inhibitor project, imaging, HEK293T, dual-color eGFP/dsRED, cherry-picks (AID 588398); type: functional, cell-based
Sequence of Latent membrane protein 1 (P03230 whole entry): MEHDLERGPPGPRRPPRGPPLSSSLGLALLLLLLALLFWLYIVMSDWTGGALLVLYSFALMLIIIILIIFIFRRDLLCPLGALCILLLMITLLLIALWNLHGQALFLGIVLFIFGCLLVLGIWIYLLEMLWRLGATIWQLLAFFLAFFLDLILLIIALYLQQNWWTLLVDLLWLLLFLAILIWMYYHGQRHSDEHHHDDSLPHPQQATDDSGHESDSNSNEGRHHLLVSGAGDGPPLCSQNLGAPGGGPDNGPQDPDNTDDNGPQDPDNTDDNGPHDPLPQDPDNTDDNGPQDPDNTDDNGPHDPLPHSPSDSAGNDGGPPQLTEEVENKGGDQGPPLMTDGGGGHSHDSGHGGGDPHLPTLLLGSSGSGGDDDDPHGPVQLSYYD

[23] = cytotoxicity toward NIH3T3 fibroblasts, dose response, counter-screen, cell-based, ATP luminescence, mouse fibroblasts (AID 2010); type: functional;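 further: cells exposed to compound for about 90 hours before reading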
[24] = target: T3, Coagulation factor XII (Homo sapiens, UniProt P00748); type: functional;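 further: activated factor XIIa alpha cleaving a fluorogenic AMC peptide substrate; inhibitor potency from loss of enzyme activity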
T3 sequence (P00748 whole entry): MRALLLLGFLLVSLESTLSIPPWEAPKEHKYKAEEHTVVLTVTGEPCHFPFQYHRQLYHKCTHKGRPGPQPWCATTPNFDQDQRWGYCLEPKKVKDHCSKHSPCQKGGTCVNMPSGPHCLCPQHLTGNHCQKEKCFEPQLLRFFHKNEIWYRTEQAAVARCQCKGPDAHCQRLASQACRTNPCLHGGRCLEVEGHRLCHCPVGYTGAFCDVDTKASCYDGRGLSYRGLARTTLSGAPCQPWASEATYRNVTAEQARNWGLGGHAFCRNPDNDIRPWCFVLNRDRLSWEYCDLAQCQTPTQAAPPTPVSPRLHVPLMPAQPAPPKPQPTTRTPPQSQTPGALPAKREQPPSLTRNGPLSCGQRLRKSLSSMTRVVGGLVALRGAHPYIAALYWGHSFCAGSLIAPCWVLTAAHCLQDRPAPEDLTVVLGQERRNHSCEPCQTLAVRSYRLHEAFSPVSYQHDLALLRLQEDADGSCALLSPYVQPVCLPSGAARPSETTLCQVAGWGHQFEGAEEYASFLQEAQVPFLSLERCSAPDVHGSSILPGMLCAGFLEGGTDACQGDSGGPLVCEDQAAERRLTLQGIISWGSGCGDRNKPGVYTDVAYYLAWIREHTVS

[25] = target: T4, Polyadenylate-binding protein 1 (Homo sapiens, UniProt P11940); assay: PABP1 MLLE–PAM2 interaction inhibitors, dose response, miRNA deadenylation inhibitor project, biochemical, fluorescence polarization, Cy5-PAM2 peptide, secondary (AID 602260); type: functional; details: read-out: IC50_Mean
T4 sequence (P11940 whole entry): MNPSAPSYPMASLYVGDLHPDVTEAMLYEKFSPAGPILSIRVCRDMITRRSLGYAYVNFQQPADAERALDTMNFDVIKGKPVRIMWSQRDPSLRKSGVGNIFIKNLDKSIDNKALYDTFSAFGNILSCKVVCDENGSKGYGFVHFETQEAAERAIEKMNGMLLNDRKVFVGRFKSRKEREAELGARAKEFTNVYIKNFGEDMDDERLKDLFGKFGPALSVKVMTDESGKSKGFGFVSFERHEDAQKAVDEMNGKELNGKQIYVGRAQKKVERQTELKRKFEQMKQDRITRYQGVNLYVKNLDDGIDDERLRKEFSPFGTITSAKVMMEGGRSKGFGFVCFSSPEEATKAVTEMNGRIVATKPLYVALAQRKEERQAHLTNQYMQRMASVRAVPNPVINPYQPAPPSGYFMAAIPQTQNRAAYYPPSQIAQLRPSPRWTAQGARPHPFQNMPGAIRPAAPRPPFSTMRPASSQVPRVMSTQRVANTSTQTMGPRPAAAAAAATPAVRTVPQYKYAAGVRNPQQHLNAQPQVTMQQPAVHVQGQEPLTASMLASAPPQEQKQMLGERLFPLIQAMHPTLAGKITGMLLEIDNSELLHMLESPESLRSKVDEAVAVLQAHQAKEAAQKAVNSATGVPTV

[26] = target: T4, Polyadenylate-binding protein 1; assay: PABP1 MLLE–PAM2 binding inhibitor potency, dose response, biochemical, fluorescence polarization, FITC-PAM2 peptide (AID 602259); type: functional; details: read-out: IC50_Mean
[27] = target: Nonstructural protein 1 (Influenza A virus, UniProt Q194T2); type: functional, Influenza A virus (A/California/07/2009(H1N1))
Sequence of Nonstructural protein 1 (Q194T2 whole entry): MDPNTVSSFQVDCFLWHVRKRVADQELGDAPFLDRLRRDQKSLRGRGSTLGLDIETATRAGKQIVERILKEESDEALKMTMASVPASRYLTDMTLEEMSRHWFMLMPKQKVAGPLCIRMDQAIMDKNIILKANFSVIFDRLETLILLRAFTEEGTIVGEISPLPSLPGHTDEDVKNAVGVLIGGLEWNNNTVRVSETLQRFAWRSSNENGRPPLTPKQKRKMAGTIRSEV

[28] = system: HeLa; assay: HeLa cell cytotoxicity, dose response, cytotoxicity control for MITF activator project, CellTiter-Glo luminescence, cherry-pick samples (AID 540259); type: functional, cell-based; details: Homo sapiens
[29] = insulin promoter down-regulators in MIN6 cells, imaging, high-content screening, mouse beta cells (AID 1628); type: functional
[30] = cytotoxicity in MIN6 insulinoma cells, dose response, cytotoxicity control, cell-based, mouse insulinoma (AID 2122); type: functional;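 further: confirmatory high-throughput counterscreen run to flag cytotoxic compounds; mouse MIN-6 beta cells carrying an insulin promoter eGFP reporter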

With `Cc1cccc(/C=C/C(=O)c2cc(Br)ccc(=O)c2O)c1` the EC50 [1] was 42.4 µM (inconclusive), the CC50 [2] was 15.1 µM (active) and the EC50 [3] was 1.11 µM (active). The EC50 [4] was > 120 µM (not active), the EC50 [5] was 11.6 µM (active) and the EC50 [6] was > 180 µM (inactive). The EC50 [7] was 2.77 µM (active), the EC50 [8] was 1.78 µM (active) and the CC50 [9] was 7.95 µM (active). The EC50 [10] was 6.88 µM (active) and the EC50 [11] was 9.67 µM (active).
In the case of `CC1(C)CC(=O)C2=C(C1)OC1=C(C(=O)CC(C)(C)C1)C2c1ccc(O)cc1O`, the IC50 [12] is reported as 9.76 µM (active), the EC50 [13] is reported as > 40 µM (inactive) and the IC50 [14] is reported as 1.36 µM (active). For the same molecule, the EC50 [15] was 7.07 µM (active), the EC50 [16] was 5.63 µM (active) and the CC50 [17] was 50 µM (active). For the same molecule, the AC50 [18] was 6.76 µM (active).
For `O=C(NCCN1CCC2(CC1)C(=O)NCN2c1cccc(F)c1)c1cccc(F)c1`, the IC50 [19] was 1.49 µM (active) and the IC50 [20] was 24 µM (active).
With `C=CCn1c(O)c(N=NC(S)=Nc2ccccc2F)c2cc(S(=O)(=O)N3CCOCC3)ccc21` the EC50 [21] was 0.495 µM (active), the AC50 [22] was 38.3 µM (active) and the EC50 [23] was 2.84 µM (active). For the same molecule, the IC50 [24] was > 50 µM (inconclusive), the IC50 [25] was > 66 µM (inactive) and the IC50 [26] was > 66 µM (inactive).
With `CCCCN1C(=O)/C(=C2\SC(N3CCCCC3)=NC2=O)c2ccccc21` the IC50 [27] was 27.4 µM (active), the AC50 [28] was 37.9 µM (active) and the IC50 [25] was > 66 µM (inactive). For the same molecule, the IC50 [29] was 2.13 µM (active), the IC50 [30] was 1.54 µM (active) and the IC50 [26] was > 66 µM (inactive).
